System: Bone marrow MSCs
Test: HGF-1 production by bone marrow MSCs cultured with rapamycin (ELISA)
Type: cell-based
Conditions: bone marrow MSCs (ATCC), 96 well plates, indicated concentrations of rapamycin and time points, ELISA (R&D Systems), FIG. 1
Experimental: Bone marrow MSCs were purchased from American Type Culture Collection (hereinafter, “ATCC”) and grown in DMEM media with 10% fetal calf serum. Cells were allowed to expand to 100% confluence. The media was subsequently washed with phosphate buffered saline (PBS). Cells were plated on 96 well plates and cultured in the presence of the indicated concentrations of rapamycin for the indicated time points. Hepatocyte Growth Factor (HGF-1) expression was assessed using ELISA (R&D Systems).

SMILES: CO[C@H]1C[C@@H]2CC[C@@H](C)[C@@](O)(O2)C(=O)C(=O)N2CCCC[C@H]2C(=O)O[C@H]([C@H](C)C[C@@H]2CC[C@@H](O)[C@H](OC)C2)CC(=O)[C@H](C)/C=C(\C)[C@@H](O)[C@@H](OC)C(=O)[C@H](C)C[C@H](C)/C=C/C=C/C=C/1C [rapamycin, Rapamycin]
- Hepatocyte Growth Factor (HGF-1) expression / production: significant increase in production of HGF-1
